Results on one molecule are retold here after US20240091210A1, “USE OF 5-[[4-[2-[5-ACETYLPYRIDIN-2-YL]ETHOXY]BENZYL]-1,3-THIAZOLIDINE-2,4-DIONE AND ITS SALTS” (Minoryx Therapeutics S.L., priority 2018, published 2024).

Data set [1] can be described thus: Minimal effective exposure in mice (dose calculation). The conditions noted are these: said to correspond to 50 mg/kg. Type of data set: in vivo. As to the method:
It can be assumed that dose-exposure is linear. The minimal effective exposure of 5-[[4-[2-[5-(1-hydroxyethyl)pyridin-2-yl]ethoxy]phenyl]methyl]-1,3-thiazolidine-2,4-dione hydrochloride is 130 μg·h/mL in mice which corresponds to administration of 50 mg/kg of 5-[[4-[2-[5-(1-hydroxyethyl)pyridin-2-yl]ethoxy]phenyl]methyl]-1,3-thiazolidine-2,4-dione hydrochloride to mice. It follows that the dose to achieve this exposure in mice is […].

Data set [2] has as its system MCD diet NASH mouse model. Kind of data set: Methionine Choline Deficient (MCD) diet NASH mouse model. Type of data set: in vivo, C57BL6/J male mice. The settings on record: 62.5 mg/kg BID oral, 7 weeks. As to the method:
The preventive effects of MIN-102 was evaluated in a 7-week Methionine Choline Deficient (MCD) diet NASH mouse model (Verdelho Machado et al.). After the acclimation period, C57BL6/J male mice (n=20) were weighed and randomized into 2 homogenous treatment groups based on body weight (n=10/group), put on a MCD diet, and treated BID orally with vehicle or MIN-102 for 7 weeks. MIN-102 was dosed 62.5 mg/kg BID orally by gavage. After the acclimation period, C57BL6/J male mice (n=20) were weighed and randomized into 2 homogenous treatment groups based on body weight (n=10/group), put on a MCD diet, and treated BID orally with a vehicle or MIN-102 (125 mg/Kg/day) for 7 weeks. Body weight was measured 3 times/week until the end of the experimental phase. At 7 weeks of diet/treatment, mice were weighed and treated at ˜08:00 am in the morning, then bled (maximal volume/EDTA) at ˜1:00 pm. Plasma was then immediately isolated and stored at −80° C. prior to assay plasma ALT and AST. The plasma volume left over was stored at −80° C. for eventual additional analysis. After blood collection, the mice were sacrificed by cervical dislocation under isoflurane anesthesia and exsanguinated with sterile saline. A NAFLD scoring system (NAS) adapted from Kleiner et al. (Hepatology. 41(6):1313-1321 (2005)) using the criteria described in the Table 1 below: Several other histopathological observations described in clinical human cases and originally reported in the NAS scoring system published by Kleiner et al. were not observed in this animal study, such as lipogranuloma, acidophil bodies, megamitochondria, and pigmented macrophages. Therefore, it was elected not to include them in the scoring system described above. An individual mouse NAS total score was calculated for each animal by summing up the score for (1) hepatocellular steatosis, (2) liver inflammation, (3) lobular fibrosis, and (4) hepatocyte ballooning. Histology analysis was performed (oil red O, H&E and Sirius Red staining) for NAFLD scoring system (NAS) for liver steatosis, inflammation, fibrosis and hepatocyte ballooning.

A short description of data set [3]: Multiple ascending dose (MAD) study in human subjects. Type of data set: in vivo. The settings on record: for Cmax: in vivo, steady state day 8, human, read-out: mean Cmax ss.
The subject of data set [4] is adiponectin. Kind of data set: Plasma adiponectin levels in rats (ELISA), measure of PPAR gamma engagement. It counts as in vivo, Sprague Dawley rats. The settings on record: 54 mg/Kg/day for 7 days, plasma 1 h after last dose, vs vehicle. As to the method:
Evaluation of effect of MIN-102 on adiponectin was performed in Sprague Dawley wild type rats as a measure of PPAR gamma engagement. The rats were treated for 7 days with increasing doses of MIN-102 at 54 mg/Kg/day. Plasma were obtained at 1 h after the last MIN-102 administration. Adiponectin levels were measured by ELISA. Results were represented as mean+standard error of the mean of n=8. Data were analyzed by Kruskal-Wallis followed by the Dunn post-hoc test versus the vehicle group (**** p<0.0001).

Data set [5] relates to MDA MB231 KO cells. Kind of data set: Seahorse oxygen consumption rate (OCR), MDA MB231 KO cells (MPC2 deleted). The settings on record: MPC activity genetically deleted. It counts as cell-based. As to the method:
(§1) To determine whether MIN-102 has any effect on pyruvate-mediated mitochondrial respiration, the extracellular flux analyzer Seahorse was used as described in Compan et al.. Seahorse experiments were performed in the following cell lines: HeLa (Cervix cancer cells), A549 (lung cancer cells), wild type MDA MB 231, and MDA MB 231 in which MPC2 has been deleted, leading to inactivation of the MPC (MDA MB231 KO). MDA MB231 cells are epithelial breast cancer cells. Cells were incubated with increasing concentrations of the compounds for one hour at 37° C. before oxygen consumption rate (OCR) measurements. The Seahorse analyzer allowed to measure basal and maximal respiration measured upon depolarization with 1 μM CCCP. […] The KO cells have been deleted of the MPC2 gene and therefore they display no MPC activity. The top panel show a representative experiment of either wild type (WT) or KO cell lines. […] OCR values are expressed as ratios of OCR in the presence of different concentrations of the tested compound over the OCR in PBS alone.

In data set [6] the test system is wild type MDA MB231 cells. The data set is described as follows: Seahorse oxygen consumption rate (OCR), wild type MDA MB231 cells. It counts as cell-based. As to the method: as §1

Like-named read-outs stand apart in the source and are kept apart here.

With `CC(O)c1ccc(CCOc2ccc(CC3SC(=O)NC3=O)cc2)nc1.Cl` (racemic) [MIN-102, 5-[[4-[2-[5-(1-hydroxyethyl)pyridin-2-yl]ethoxy]phenyl]methyl]-1,3-thiazolidine-2,4-dione hydrochloride], the minimal effective exposure in data set [1] was 130 µg·h/mL. In data set [2], the hepatic cholesterol levels result was “did not show a change” and the liver inflammation result is given as “total disappearance”. The body weight loss entry in data set [2] (day 14 to day 50, vs vehicle) is reported as “less severe decline in body weight loss”. Besides, in data set [2] (vs vehicle, p<0.001), the “oil red o staining %” value is “extremely low”, the “reduction in hepatic triglycerides levels” value is reported as 92% and the steatosis score result is given as “blunted”. In data set [2] (vs vehicle, p<0.01), the “reduction of plasma ALT level” value was 78% and the “reduction of plasma AST level” value was found to be 55%. Moreover, in data set [2] (vehicle 3.40±0.3, p<0.001), the “mean NAS group score” value worked out at 0.44±01. Also, the “change in clearance with time” value in data set [3] (135 mg and 270 mg, human) was “no change in clearance with time”. The maximum concentration (Cmax) in data set [3] (135 mg) is 9490 ng/mL. In data set [3] (270 mg), the Cmax came to 17200 ng/mL. Also, the “Cmin ss associated with the target AUCss” value in data set [3] (target AUCss 200 μg·h/mL, line of best fit of day 8 Cmin ss vs AUCss) was found to be 5716 ng/mL. In addition, in data set [4], the plasma adiponectin levels entry is “significantly increased”. In addition, the “effect on oxygen consumption” value in data set [5] is “does not inhibit oxygen consumption”. For the same molecule, the “effect on oxygen consumption” value in data set [6] is “inhibits oxygen consumption in a MPC dependent manner”.
